US8835428B2, “Diacylglycerol acyltransferase inhibitors” (Piramal Enterprises Limited, priority 2008, dated 2014)

Target: T1, hDGAT1 (Homo sapiens, UniProt O75907)
T1 construct: host or cells: Sf9 insect cells (baculovirus); microsomal preparation
T1 sequence (O75907 1-488): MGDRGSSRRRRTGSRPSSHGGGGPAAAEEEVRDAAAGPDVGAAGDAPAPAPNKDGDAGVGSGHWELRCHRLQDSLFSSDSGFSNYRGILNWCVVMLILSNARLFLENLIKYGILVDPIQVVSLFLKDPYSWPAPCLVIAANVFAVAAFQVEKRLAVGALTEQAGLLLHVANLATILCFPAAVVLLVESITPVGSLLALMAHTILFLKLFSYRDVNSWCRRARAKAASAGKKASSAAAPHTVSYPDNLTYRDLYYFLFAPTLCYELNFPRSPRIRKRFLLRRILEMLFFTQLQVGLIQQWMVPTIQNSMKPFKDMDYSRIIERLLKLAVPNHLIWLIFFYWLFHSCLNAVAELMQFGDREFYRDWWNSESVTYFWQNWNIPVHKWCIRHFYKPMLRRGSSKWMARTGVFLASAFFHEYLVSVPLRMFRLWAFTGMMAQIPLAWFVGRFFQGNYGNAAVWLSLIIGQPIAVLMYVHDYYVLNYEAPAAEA
Experiment: In-vitro DGAT1 assay (hDGAT1 microsomes from Sf9 cells, 14C oleoyl CoA, triglyceride formation)
Format: biochemical
Details: At 10 μM
Procedure, shortened: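 Compounds tested in duplicate at 10, 5 and 1 μM for 10 min at 37 °C. Reaction: Sf9-expressed hDGAT1 microsomes (2.5–10 μg), [14C]oleoyl-CoA plus 409.5–1638 μM dioleoylglycerol, pH 7.4 Tris-HCl with fatty-acid-free BSA. Radiolabelled triglyceride extracted into heptane and scintillation-counted.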

| Compound | inhibition at 10 µM [%] | % inhibition of hDGAT1 |
| --- | --- | --- |
| COC(=O)[C@@H](NC(=NO)c1cc(-c2ccc(Nc3nc4ccc(F)cc4s3)cc2)no1)c1ccccc1 [Example 56, (S)-({3-[4-(6-Fluoro-benzothiazol-2-ylamino)-phenyl]-N-hydroxy-isoxazole-5-carboximidoyl}-amino)-phenyl-acetic acid methyl ester] | 0 to 50 |  |
| O=C(O)CNC(=O)c1cc(-c2ccc(Nc3nc4ccc(F)cc4s3)cc2)no1 [Example 59, ({3-[4-(6-Fluoro-benzothiazol-2-ylamino)-phenyl]-isoxazole-5-carbonyl}-amino)-acetic acid] | 0 to 50 |  |
| O=C(NC1(C(=O)O)CCCC1)c1cc(-c2ccc(Nc3nc4ccc(F)cc4s3)cc2)no1 [Example 63, 1-({3-[4-(6-Fluoro-benzothiazol-2-ylamino)-phenyl]-isoxazole-5-carbonyl}-amino)-cyclopentanecarboxylic acid] | 0 to 50 |  |
| O=C(O)C1(NC(=S)c2cc(-c3ccc(Nc4nc5ccc(F)cc5s4)cc3)no2)CCCC1 [Example 65, 1-({3-[4-(6-Fluoro-benzothiazol-2-ylamino)-phenyl]-isoxazole-5-carbothioyl}-amino)-cyclopentanecarboxylic acid] | 0 to 50 |  |
| O=C(O)C1(NC(=NO)c2cc(-c3ccc(Nc4nc5ccc(F)cc5s4)cc3)no2)CCCC1 [Example 66, 1-({3-[4-(6-Fluoro-benzothiazol-2-ylamino)-phenyl]-N-hydroxy-isoxazole-5-carboximidoyl}-amino)-cyclopentanecarboxylic acid] | 0 to 50 |  |
| COC[C@H](NC(=O)c1c(-c2ccc(Nc3nc4ccc(F)cc4s3)cc2)noc1-c1ccccc1)C(=O)OC [Example 70, (S)-2-({3-[4-(6-Fluoro-benzothiazol-2-ylamino)-phenyl]-5-phenyl-isoxazole-4-carbonyl}-amino)-3-methoxy-propionic acid methyl ester] | 0 to 50 |  |
| CC(C)[C@H](NC(=O)c1cc(-c2ccc(NC(=O)Nc3ccccc3)cc2)no1)C(=O)O [Example 77, (S)-3-Methyl-2-({3-[4-(3-phenyl-ureido)-phenyl]-isoxazole-5-carbonyl}-amino)-butyric acid] | 75 to 100 |  |
| CCC(C)[C@H](NC(=O)c1cc(-c2ccc(NC(=O)Nc3ccccc3)cc2)no1)C(=O)O (stereo partly drawn) [Example 79, (S)-3-Methyl-2-({3-[4-(3-phenyl-ureido)-phenyl]-isoxazole-5-carbonyl}-amino)-pentanoic acid] | 75 to 100 |  |
| COC(=O)[C@@H](NC(=O)c1cc(-c2ccc(NC(=O)NC3CCCCC3)cc2)no1)C(C)C [Example 80, (S)-2-(S)-2-({3-[4-(3-cyclohexyl-ureido)-phenyl]-isoxazole-5-carbonyl}-amino)-3-methyl-butyric acid methyl ester] |  | ++ (>50% Inhibition ≦75) |
| CC(C)[C@H](NC(=O)c1cc(-c2ccc(NC(=O)NC3CCCCC3)cc2)no1)C(=O)O [Example 81, (S)-2-({3-[4-(3-cyclohexyl-ureido)-phenyl]-isoxazole-5-carbonyl}-amino)-3-methyl-butyric acid] | 75 to 100 |  |
| CC(C)C[C@H](NC(=O)c1cc(-c2ccc(NC(=O)NC3CCCCC3)cc2)no1)C(=O)O [Example 83, (S)-2-({3-[4-(3-cyclohexyl-ureido)-phenyl]-isoxazole-5-carbonyl}-amino)-4-methyl-pentanoic acid] | 50 to 75 |  |
| CC(C)[C@H](NC(=O)c1cc(-c2ccc(NC(=O)Nc3ccc(F)cc3)cc2)no1)C(=O)O [Example 85, (S)-2-[(3-{4-[3-(4-Fluoro-phenyl)-ureido]-phenyl}-isoxazole-5-carbonyl)-amino]-3-methyl-butyric acid] | 75 to 100 |  |
| COC(=O)[C@H](CC(C)C)NC(=O)c1cc(-c2ccc(NC(=O)Nc3ccc(F)cc3)cc2)no1 [Example 86, (S)-2-[(3-{4-[3-(4-Fluoro-phenyl)-ureido]-phenyl}-isoxazole-5-carbonyl)-amino]-4-methyl-pentanoic acid methyl ester] | 0 to 50 |  |

The remaining lines, values ahead:

| inhibition at 10 µM [%] | % inhibition of hDGAT1 | Compound |
| --- | --- | --- |
| 0 to 50 |  | COC(=O)[C@@H](NC(=O)c1cc(-c2ccc(Nc3nc4ccc(F)cc4s3)cc2)no1)c1ccccc1 [Example 52, (S)-({3-[4-(6-Fluoro-benzothiazol-2-ylamino)-phenyl]-isoxazole-5-carbonyl}-amino)-phenyl-acetic acid methyl ester] |
| 75 to 100 |  | O=C(N[C@H](C(=O)O)c1ccccc1)c1cc(-c2ccc(Nc3nc4ccc(F)cc4s3)cc2)no1 [Example 53, (S)-({3-[4-(6-Fluoro-benzothiazol-2-ylamino)-phenyl]-isoxazole-5-carbonyl}-amino)-phenyl-acetic acid] |
| 0 to 50 |  | COC(=O)[C@@H](NC(=S)c1cc(-c2ccc(Nc3nc4ccc(F)cc4s3)cc2)no1)c1ccccc1 [Example 54, (S)-({3-[4-(6-Fluoro-benzothiazol-2-ylamino)-phenyl]-isoxazole-5-carbothioyl}-amino)-phenyl-acetic acid methyl ester] |
| 0 to 50 |  | O=C(O)[C@@H](NC(=NO)c1cc(-c2ccc(Nc3nc4ccc(F)cc4s3)cc2)no1)c1ccccc1 [Example 57, (S)-({3-[4-(6-Fluoro-benzothiazol-2-ylamino)-phenyl]-N-hydroxy-isoxazole-5-carboximidoyl}-amino)-phenyl-acetic acid] |
| 0 to 50 |  | COC(=O)CNC(=S)c1cc(-c2ccc(Nc3nc4ccc(F)cc4s3)cc2)no1 [Example 60, ({3-[4-(6-fluoro-benzothiazol-2-ylamino)-phenyl]-isoxazole-5-carbothioyl}-amino)-acetic acid methyl ester] |
| 0 to 50 |  | O=C(O)CNC(=S)c1cc(-c2ccc(Nc3nc4ccc(F)cc4s3)cc2)no1 [Example 61, ({3-[4-(6-fluoro-benzothiazol-2-ylamino)-phenyl]-isoxazole-5-carbothioyl}-amino)-acetic acid] |
| 0 to 50 |  | COC(=O)C1(NC(=O)c2cc(-c3ccc(Nc4nc5ccc(F)cc5s4)cc3)no2)CCCC1 [Example 62, 1-({3-[4-(6-fluoro-benzothiazol-2-ylamino)-phenyl]-isoxazole-5-carbonyl}-amino)-cyclopentanecarboxylic acid methyl ester] |
| 0 to 50 |  | COC(=O)[C@@H](NC(=O)c1c(-c2ccc(Nc3nc4ccc(F)cc4s3)cc2)noc1-c1ccccc1)C(C)C [Example 68, (S)-2-({3-[4-(6-Fluoro-benzothiazol-2-ylamino)-phenyl]-5-phenyl-isoxazole-4-carbonyl}-amino)-3-methyl-butyric acid methyl ester] |
| 0 to 50 |  | CC(C)[C@H](NC(=O)c1c(-c2ccc(Nc3nc4ccc(F)cc4s3)cc2)noc1-c1ccccc1)C(=O)O [Example 69, (S)-2-({3-[4-(6-Fluoro-benzothiazol-2-ylamino)-phenyl]-5-phenyl-isoxazole-4-carbonyl}-amino)-3-methyl-butyric acid] |
| 0 to 50 |  | COC(=O)[C@@H](NC(=S)c1c(-c2ccc(Nc3nc4ccc(F)cc4s3)cc2)noc1-c1ccccc1)C(C)C [Example 72, (S)-2-({3-[4-(6-Fluoro-benzothiazol-2-ylamino)-phenyl]-5-phenyl-isoxazole-4-carbothioyl}-amino)-3-methyl-butyric acid methyl ester] |
| 0 to 50 |  | COC[C@H](NC(=S)c1c(-c2ccc(Nc3nc4ccc(F)cc4s3)cc2)noc1-c1ccccc1)C(=O)OC [Example 74, (S)-2-({3-[4-(6-Fluoro-benzothiazol-2-ylamino)-phenyl]-5-phenyl-isoxazole-4-carbothioyl}-amino)-3-methoxy-propionic acid methyl ester] |
| 50 to 75 |  | COC(=O)[C@@H](NC(=O)c1cc(-c2ccc(NC(=O)Nc3ccccc3)cc2)no1)C(C)C [Example 76, (S)-3-Methyl-2-({3-[4-(3-phenyl-ureido)-phenyl]-isoxazole-5-carbonyl}-amino)-butyric acid methyl ester] |
| 0 to 50 |  | CCC(C)[C@H](NC(=O)c1cc(-c2ccc(NC(=O)Nc3ccccc3)cc2)no1)C(=O)OC (stereo partly drawn) [Example 78, (S)-3-Methyl-2-({3-[4-(3-phenyl-ureido)-phenyl]-isoxazole-5-carbonyl}-amino)-pentanoic acid methyl ester] |
| 0 to 50 |  | COC(=O)[C@H](CC(C)C)NC(=O)c1cc(-c2ccc(NC(=O)NC3CCCCC3)cc2)no1 [Example 82, (S)-2-({3-[4-(3-cyclohexyl-ureido)-phenyl]-isoxazole-5-carbonyl}-amino)-4-methyl-pentanoic acid methyl ester] |
| 50 to 75 |  | COC(=O)[C@@H](NC(=O)c1cc(-c2ccc(NC(=O)Nc3ccc(F)cc3)cc2)no1)C(C)C [Example 84, (S)-2-[(3-{4-[3-(4-Fluoro-phenyl}-ureido]-phenyl)-isoxazole-5-carbonyl)-amino]-3-methyl-butyric acid methyl ester] |
| 75 to 100 |  | CC(C)C[C@H](NC(=O)c1cc(-c2ccc(NC(=O)Nc3ccc(F)cc3)cc2)no1)C(=O)O [Example 87, (S)-2-[(3-{4-[3-(4-Fluoro-phenyl)-ureido]-phenyl}-isoxazole-5-carbonyl)-amino]-4-methyl-pentanoic acid] |
